Measured values from ChEMBL document CHEMBL1150088, “Bioactive Guanidine Alkaloids from Pterogyne nitens” (J Nat Prod, 1995).
In brackets after ≈: the same amount, converted by molar mass.

Columns and labels:
[1] = Cytotoxicity against CHOAUXB1 cells; format: cell-based; conditions: Cricetulus griseus
Saccharomyces cerevisiae [2] = assay: DNA damaging activity against RS167N rad6 DNA repair gene deficient Saccharomyces cerevisiae mutant assessed as drug level required to produce 12 mm zone of inhibition after 48 hrs; format: functional
Saccharomyces cerevisiae [3] = assay: DNA damaging activity against RS322YK rad52Y DNA repair gene deficient Saccharomyces cerevisiae mutant assessed as drug level required to produce 12 mm zone of inhibition after 48 hrs; format: functional
Saccharomyces cerevisiae [4] = assay: DNA damaging activity against RS321 DNA repair gene deficient Saccharomyces cerevisiae mutant assessed as drug level required to produce 12 mm zone of inhibition after 48 hrs; format: functional
Saccharomyces cerevisiae [5] = assay: DNA damaging activity against RS188N rad DNA repair gene expressing Saccharomyces cerevisiae assessed as drug level required to produce 12 mm zone of inhibition after 48 hrs; format: functional

Structure (SMILES)	IC50 [1]	IC12 (Saccharomyces cerevisiae [2])	IC12 (Saccharomyces cerevisiae [3])	IC12 (Saccharomyces cerevisiae [4])	IC12 (Saccharomyces cerevisiae [5])
CC[C@@]1(O)C(=O)OCc2c1cc1n(c2=O)Cc2cc3ccccc3nc2-1 [CAMPTOTHECIN]	0.016 µg/mL (≈ 0.0459 µM)	8.7 µg/mL	0.6 µg/mL		
CC(C)=CCC/C(C)=C/CNC(=N)NC/C=C(\C)CCC=C(C)C [NITENSIDINE A]	13 µg/mL (≈ 39.2 µM)	> 8000 µg/mL	> 1000 µg/mL	6 µg/mL	> 1000 µg/mL
CC(C)=CCC/C(C)=C/CN(C/C=C(\C)CCC=C(C)C)C(=N)N [NITENSIDINE B]	9.3 µg/mL (≈ 28.1 µM)	> 8000 µg/mL	> 500 µg/mL	10 µg/mL	> 1000 µg/mL
CC(C)=CCC/C(C)=C/CN(C)C(=N)N(C)C/C=C(\C)CCC=C(C)C [NITENSIDINE C]	20 µg/mL (≈ 55.6 µM)	> 8000 µg/mL	> 8000 µg/mL	13 µg/mL	> 8000 µg/mL
CC(C)=CCNC(=N)NCC=C(C)C [PTEROGYNIDINE]		> 1000 µg/mL	> 1000 µg/mL	8.5 µg/mL	> 1000 µg/mL
COC1=C(N)C(=O)c2nc(-c3nc(C(=O)O)c(C)c(-c4ccc(OC)c(OC)c4O)c3N)ccc2C1=O [STREPTONIGRIN]		2.4 µg/mL	0.4 µg/mL		
